Source: US5462861A, “Method for improving enzyme activities with noble gases” (American Air Liquide, Chicago Research Center, priority 1993, dated 1995)
Entries after “also recorded” stand apart in the source; their conditions may differ.

Legend:
citrate synthetase = biological target: T1, citrate synthetase (Homo sapiens, UniProt O75390); assay: Citrate synthetase complex reaction under gas; assay type: biochemical; conditions: for effect on citrate synthase: FIG. 33
T1 sequence (O75390 28-466): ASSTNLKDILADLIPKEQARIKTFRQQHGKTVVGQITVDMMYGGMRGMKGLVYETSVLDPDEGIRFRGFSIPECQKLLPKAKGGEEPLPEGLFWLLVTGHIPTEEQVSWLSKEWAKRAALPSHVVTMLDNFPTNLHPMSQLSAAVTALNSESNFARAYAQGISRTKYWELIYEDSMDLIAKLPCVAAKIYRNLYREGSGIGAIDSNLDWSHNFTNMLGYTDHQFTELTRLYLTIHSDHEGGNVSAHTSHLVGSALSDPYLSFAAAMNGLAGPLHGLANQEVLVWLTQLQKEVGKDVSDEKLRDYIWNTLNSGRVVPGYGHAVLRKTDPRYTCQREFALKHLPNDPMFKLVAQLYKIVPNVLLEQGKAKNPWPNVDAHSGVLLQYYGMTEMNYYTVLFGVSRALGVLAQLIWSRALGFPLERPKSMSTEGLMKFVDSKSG
Method: (§1) Solution preparation: Optimized w/v solutions are prepared by diluting the enzyme (units/ml) and the substrate (μg/ml) in appropriate buffer (optimized pH and molarity for enzymes). The solutions are used for gas experiments at once to avoid loss of activity. Various enzyme and substrate concentrations and inhibitors may be employed. Physical parameters are varied as required.
(§2) Preparation of samples: Cuvets are filled with 2 ml of substrate solution by means of a gas-tight syringe. Gas-tight serum vials are filled with enzyme and solvent. Sufficient gas is consecutively bubbled in the cuvets and serum vials, with a 1-hr wait between injections to maximize equilibration of gas. All syringes and dead spaces are purged before filling with the appropriate gas. The amount of gas used has been measured sufficient to saturate the solution required.
(§3) Spectrophotometric time-drive, reaction rate, and kinetic analyses: cuvets and serum vials are saturated with gas 40 minutes before the run. A gas-filled syringe is used to retrieve 0.5 ml of enzyme solution to avoid air contact. The 0.5 ml syringe injections of enzyme are made simultaneously to effect a common starting time to for the samples. 7 gases (air, O2, N2, Ne, Ar, Kr, Xe) are run at various temperatures each (from 0° to 60° ). Changes in the rate or final equilibrium of the reaction versus ambient air are recorded. Comparison is also made with added oxygen, and with deoxygenation. Some samples are also prepared under pressure.
(§4) In a complete experiment, an enzyme at optimal pH and buffering salt concentration is reacted with 5 substrate concentrations in solution with noble gas at 1 atm. […] Controls are also run after evacuation of solution by vacuum. The reaction is monitored colorimetrically in a scanning spectrophotometer in real time, and the signals are treated mathematically to obtain rate and yield differences. Sample numbers are constant and sufficient to ensure significance of results. All parameters are independently controlled and measured, and more complex experiments are occasionally carried out.

Glucose oxidase = Glucose oxidase (Aspergillus niger, UniProt P13006); assay: Glucose oxidase activity under gas; assay type: biochemical; conditions: for effect on glucose oxidase: FIG. 28; for effect: minus = inhibition, dependent upon temperature and substrate concentration
Chain of Glucose oxidase (P13006 17-605): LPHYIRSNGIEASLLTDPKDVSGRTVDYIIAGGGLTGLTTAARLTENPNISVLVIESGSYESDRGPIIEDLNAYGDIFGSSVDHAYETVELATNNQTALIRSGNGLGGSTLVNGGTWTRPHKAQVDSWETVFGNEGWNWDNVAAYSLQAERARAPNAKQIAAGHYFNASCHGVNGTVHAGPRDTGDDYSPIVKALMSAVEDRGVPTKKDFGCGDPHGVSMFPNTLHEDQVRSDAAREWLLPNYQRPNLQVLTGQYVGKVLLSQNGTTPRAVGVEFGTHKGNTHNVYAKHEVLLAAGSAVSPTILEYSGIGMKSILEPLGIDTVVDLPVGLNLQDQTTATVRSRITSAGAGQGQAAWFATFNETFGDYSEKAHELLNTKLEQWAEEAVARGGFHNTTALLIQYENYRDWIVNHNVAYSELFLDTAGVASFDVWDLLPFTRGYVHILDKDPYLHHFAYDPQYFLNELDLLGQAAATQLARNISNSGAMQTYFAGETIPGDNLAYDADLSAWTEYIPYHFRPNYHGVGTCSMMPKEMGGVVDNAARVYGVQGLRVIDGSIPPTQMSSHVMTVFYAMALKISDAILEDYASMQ
Method: as §1, §2, §3

Tyrosinase = assay: Tyrosinase-L-tyrosine reaction, solution saturated with gas; assay type: biochemical, Mushroom; conditions: for effect: optimal reaction conditions, simple saturation of solution with gas, minus = inhibition; for effect on rate and final equilibrium of the tyrosinase-L-tyrosine reaction: various temperatures; for temperature dependence of the effect on tyrosinase: various temperatures (15-35° C.)
Method: as §1, §2, §3
1. Solution preparation: 10% w/v solutions are prepared by diluting the enzyme (units/ml) and the substrate (μg/ml) in Sodium Phosphate buffer (pH 6.85, optimized pH for enzymes). The solutions are stored in refrigerator (0°-5° C.) and used for gas experiments within 2 or 3 days to avoid loss of activity.
6. Preparation of run samples: Acrylic cuvets are filled with 2 ml of substrate solution by means of a gas tight syringe. Gastight serum vials are filled with enzyme. 3×10 cc of gas are consecutively bubbled in the cuvets and serum vials, with a […] between injections. This represents a 10× displacement of dead volume while maximizing equilibration of gas. All syringes and dead spaces are purged before filling with the appropriate gas. After the third 10 cc injection, the cuvets and serum vials are left overnight under two 10 cc syringes filled with the appropriate gas in refrigerator at 0°-5° C.
8. Spectrophotometric runs: The cuvets and serum vials are filled with 10 cc of gas 40 min before the run. A gas-filled syringe is used to retrieve 0.5 ml of enzyme solution to avoid air contact. The 0.5 ml syringe injections of enzyme are made simultaneously to effect a common starting time t0 for the samples. Seven gases (air, O2, N2, Ne, Ar, Kr, Xe) are run at five temperatures each (15° C., 20° C., 25° C., 30° C., 35° C.). Changes in the rate or final equilibrium of the reaction versus ambient air are recorded.
The optimal conditions are [E]/[S] (100 μg/ml)/(100 μg/ml), the changes in absorbance being observed at 305 nm.
3×10 cc of gas are bubbled in the silicone-sealed cuvets and serum vials (T-3754, T-7755), with an interval of 20 min (at 0°-5°C.) between each gas injection.
a. The silicone-sealed cuvets are removed from the refrigerator 40 min before the experimental run, filled with 10 cc of gas and left at room temperature (26° C.) under two 10 cc syringes.
The 0.5 ml syringe injections of enzyme are made simultaneously to effect a common starting time t0 for the samples.
200 points, 18 s intervals 1 hr run

[1] = tested on: phenylalanine ammonia lyase; assay: Phenylalanine ammonia lyase activity under gas; assay type: biochemical; conditions: for effect on phenylalanine ammonia lyase: head not printed; for effect on phenylalanine ammonia-lyase: FIG. 32
Method: as §1, §2, §3, §4

Acetyl S-CoA synthetase = Acetyl S-CoA synthetase activity under gas (coupled sequence or isolated reaction); assay type: biochemical; conditions: for Maximum observed enhancement / maximum observed inhibition: depending upon temperature
Method: as §1, §2, §3
Maximum observed enhancement vs maximum observed inhibition (depending upon temperature):
In a coupled complex reaction sequence including hydrolytic enzymes: […]

[2] = optimized enzyme concentration, first value column
[3] = optimized enzyme concentration, second value column
[4] = optimized enzyme concentration, third value column
[5] = suboptimal enzyme concen., first value column
[6] = suboptimal enzyme concen., second value column
[7] = suboptimal enzyme concen., third value column
[8] = coupled complex reaction sequence including hydrolytic enzymes

Row | Structure (SMILES) | effect on citrate synthetase complex reaction (citrate synthetase; 10° C.) | effect on citrate synthetase complex reaction (citrate synthetase; 25° C.) | effect on citrate synthetase complex reaction (citrate synthetase; 35° C.) | effect on glucose oxidase (Glucose oxidase) | effect (Glucose oxidase) [%] | effect on tyrosinase-L-tyrosine reaction (Tyrosinase; 15° C.) | effect on tyrosinase-L-tyrosine reaction (Tyrosinase; 25° C.) | effect (Tyrosinase; 25° C.) [%] | effect on tyrosinase-L-tyrosine reaction (Tyrosinase; 30° C.) | effect on rate and final equilibrium of the tyrosinase-L-tyrosine reaction (Tyrosinase) | effect on phenylalanine ammonia lyase [1, 2] | effect on phenylalanine ammonia lyase [1, 3] | effect on phenylalanine ammonia lyase [1, 4] | effect on phenylalanine ammonia lyase [1, 5] | effect on phenylalanine ammonia lyase [1, 6] | effect on phenylalanine ammonia lyase [1, 7] | Maximum observed enhancement (Acetyl S-CoA synthetase; [8]) | maximum observed inhibition (Acetyl S-CoA synthetase; [8]) | Maximum observed enhancement (Acetyl S-CoA synthetase; isolated reaction) | maximum observed inhibition (Acetyl S-CoA synthetase; isolated reaction) [%] | other results
1 | [Ar] [Ar, argon] | +25 | -10 | -15 | inhibition | -85.8 | slightly inhibits equilibrium | inhibit at a lesser level than the other noble gases; also recorded: less inhibition at 25 °C than neon; also recorded: inhibitory effect | -60 | inhibitory effect | inhibition; also recorded: surprisingly active at low temperatures | +6 | +1 | +3 | -1 | +1 | +6.5 | +67.7% | +34.6% | +75.4% | -27.6 | effect on citrate synthase (citrate synthetase): inhibition; effect on tyrosinase-L-tyrosine reaction (Tyrosinase; 20° C.): effective inhibitors; also recorded: strong inhibition; also recorded: dramatically inhibit; also recorded: better inhibition by argon at 20 °C than neon; also recorded: inhibiting effects
2 | [Kr] [Kr, krypton] | +37 | +6 | +32 | inhibition | -92.7 | strong effects; also recorded: large inhibitory effect | inhibitory effect | -73 | inhibitory effect | inhibition | +7 | +4 | +4 | +3 | +18 | +14 | +16.1% | -34.6% | +5.0% | -52.6 | effect on citrate synthase (citrate synthetase): enhancement; effect on tyrosinase-L-tyrosine reaction (Tyrosinase; 20° C., listed as Krypton): lesser inhibitory effect; effect on tyrosinase-L-tyrosine reaction (Tyrosinase; 20° C., listed as krypton): effective inhibitors; also recorded: almost of equal effect; also recorded: lesser effect; also recorded: inhibiting effects; temperature dependence of the effect on tyrosinase (Tyrosinase): direct inverse (negative) relationship; also recorded: activity transition occuring between 20 °C and 25 °C; effect on S-acetyl CoA synthetase (Acetyl S-CoA synthetase; 25° C., FIG. 36): enhancement
3 | N#N [N2, nitrogen, reference compound] | -6 | -25 | -17 | inhibition | – | – | inhibit at a lesser level than the other noble gases | – | – | effective in inhibiting tyrosinase activity; also recorded: inhibition | +19 | 0 | +6 | 0 | 0 | +12 | +31.2% | -39.5% | +35.7% | -118.7 | effect on tyrosinase-L-tyrosine reaction (Tyrosinase; 20° C., listed as Nitrogen): inhibits the reaction fairly well; effect on tyrosinase-L-tyrosine reaction (Tyrosinase; 20° C., listed as nitrogen): lesser inhibitory effect; temperature dependence of the effect on tyrosinase (Tyrosinase): transitional maxima is observed after 20 °C; effect on phenylalanine ammonia-lyase [1]: enhancement; effect on acetyl S-CoA synthetase compared with noble gases (Acetyl S-CoA synthetase): much lesser effect than noble gases except at superoptimal temperatures
4 | [Ne] [Ne, neon] | +11 | +9 | -14 | inhibition | -61.7 | strong effects; also recorded: large inhibitory effect | inhibitory effect | -46.7 | inhibitory effect | – | -2 | +6 | -6 | +15 | 0 | +6 | +2.3% | -21.9% | – | – | effect on tyrosinase-L-tyrosine reaction (Tyrosinase; 20° C.): effective inhibitors; also recorded: dramatically inhibit; also recorded: inhibiting effects; temperature dependence of the effect on tyrosinase (Tyrosinase): activity transition occuring between 20 °C and 25 °C; also recorded: positively temperature dependent; effect on phenylalanine ammonia-lyase [1]: enhancement
